Measurements reported in PubChem BioAssay AID248 (DTP/NCI, 2004).
“And” between values parts separate entries of the source, which are not always exact repeats. Equal entries are not always repeated. Toxic doses and inconclusive results are not listed. Cut-off read from the data, not from the text of the source: active = T/C of 150% or more; inactive = T/C below 125%.

System: L1210 leukemia ip in BDF1 mice, survival T/C
Assay: NCI In Vivo Anticancer Drug Screen. Data for tumor model L1210 Leukemia (intraperitoneal) in B6D2F1 (BDF1) mice
Settings: endpoint: mean survival time, higher = longer survival
In short: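 Read-out is survival time, reported as the treated-group measurement over the vehicle-control measurement.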

[1] = dose: 100.0 mg/kg/injection, schedule: Q01DX009 (ip), vehicle: Klucel (hydroxypropylcellulose) (HPC)
[2] = dose: 100.0 mg/kg/injection, schedule: Q04DX002 (ip), vehicle: saline
[3] = dose: 200.0 mg/kg/injection, schedule: Q01DX009 (ip), vehicle: Klucel (hydroxypropylcellulose) (HPC)
[4] = dose: 200.0 mg/kg/injection, schedule: Q04DX002 (ip), vehicle: saline
[5] = dose: 400.0 mg/kg/injection, schedule: Q01DX009 (ip), vehicle: Klucel (hydroxypropylcellulose) (HPC)
[6] = dose: 400.0 mg/kg/injection, schedule: Q04DX002 (ip), vehicle: saline
[7] = dose: 100.0 mg/kg/injection, schedule: Q04DX003 (ip), vehicle: saline with Tween-80
[8] = dose: 200.0 mg/kg/injection, schedule: Q04DX003 (ip), vehicle: saline with Tween-80
[9] = dose: 400.0 mg/kg/injection, schedule: Q04DX003 (ip), vehicle: saline with Tween-80
[10] = dose: 100.0 mg/kg/injection, schedule: Q01DX009 (ip), vehicle: saline with Tween-80
[11] = dose: 200.0 mg/kg/injection, schedule: Q01DX009 (ip), vehicle: saline with Tween-80
[12] = dose: 400.0 mg/kg/injection, schedule: Q01DX009 (ip), vehicle: saline with Tween-80
[13] = dose: 100.0 mg/kg/injection, schedule: Q01DX001 (ip), vehicle: carboxymethylcellulose (CMC)
[14] = dose: 200.0 mg/kg/injection, schedule: Q01DX001 (ip), vehicle: carboxymethylcellulose (CMC)
[15] = dose: 100.0 mg/kg/injection, schedule: Q04DX002 (ip), vehicle: saline with Tween-80
[16] = dose: 200.0 mg/kg/injection, schedule: Q04DX002 (ip), vehicle: saline with Tween-80
[17] = dose: 400.0 mg/kg/injection, schedule: Q04DX002 (ip), vehicle: saline with Tween-80
[18] = dose: 100.0 mg/kg/injection, schedule: Q04DX003 (ip), vehicle: saline
[19] = dose: 200.0 mg/kg/injection, schedule: Q04DX003 (ip), vehicle: saline
[20] = dose: 400.0 mg/kg/injection, schedule: Q04DX003 (ip), vehicle: saline

Measured: T/C

CC(=O)N(C)c1ccc(NC(=O)Nc2c(C)cccc2C)cc1
inactive: dose: 25.0 mg/kg/injection, schedule: Q04DX002 (ip), vehicle: saline 94 % of control | dose: 50.0 mg/kg/injection, schedule: Q01DX009 (ip), vehicle: Klucel (hydroxypropylcellulose) (HPC) 96 % of control | dose: 50.0 mg/kg/injection, schedule: Q04DX002 (ip), vehicle: saline 93 % of control | [1] 98 % of control | [2] 96 % of control | [3] 102 % of control | [4] 110 % of control and 112 % of control | [5] 96 % of control | [6] 94 % of control

CNC(C)(C)C
inactive: [7] 93 % of control | [8] 93 % of control | [9] 86 % of control

CCCNC(=O)Oc1ccc(C(=O)OCC)cc1
inactive: [10] 93 % of control | [11] 98 % of control | [12] 94 % of control

O=C1NC2CCC1c1ccccc12 (centres undefined)
inactive: dose: 50.0 mg/kg/injection, schedule: Q01DX001 (ip), vehicle: carboxymethylcellulose (CMC) 110 % of control | [13] 105 % of control | [14] 108 % of control

O=C(O)CC1(c2ccccc2)OC(=O)c2ccccc21 (centres undefined)
inactive: dose: 50.0 mg/kg/injection, schedule: Q04DX002 (ip), vehicle: saline with Tween-80 92 % of control | [15] 92 % of control | [16] 99 % of control | [17] 89 % of control

Cc1cccc(Cl)c1NC(=O)CC#N
inactive: [10] 97 % of control | [15] 97 % of control | [11] 95 % of control | [16] 97 % of control | [12] 100 % of control | [17] 97 % of control

O=C(Cn1cc(F)c(=O)[nH]c1=O)N1CCC2(CC1)SSC1(CCN(C(=O)Cn3cc(F)c(=O)[nH]c3=O)CC1)S2
inactive: dose: 100.0 mg/kg/injection, schedule: Q01DX009 (ip), vehicle: saline 96 % of control | [18] 104 % of control | dose: 200.0 mg/kg/injection, schedule: Q01DX009 (ip), vehicle: saline 96 % of control | [19] 97 % of control | [20] 97 % of control

CCOC(=S)Sc1ccc2c(c1)-c1ccc(F)cc1C2=O
inactive: [13] 111 % of control | [14] 95 % of control | dose: 400.0 mg/kg/injection, schedule: Q01DX001 (ip), vehicle: carboxymethylcellulose (CMC) 98 % of control

CCN(CC)Cc1cc(NC(C)=O)ccc1O
inactive: [18] 102 % of control | [19] 97 % of control | [20] 113 % of control

CC1(CCCOc2ccccc2C(=O)NCBr)N=C(N)N=C(N)N1c1ccccc1 (centres undefined)
inactive: dose: 100.0 mg/kg/injection, schedule: Q01DX001 (ip), vehicle: Klucel (hydroxypropylcellulose) (HPC) 104 % of control

CCCCCCCC(=O)Nc1c(C)cccc1C
inactive: [7] 97 % of control | [8] 93 % of control | [9] 93 % of control

O=C1c2cc([N+](=O)[O-])ccc2-c2cc(Cl)ccc21
inactive: [7] 97 % of control | [8] 97 % of control | [9] 97 % of control

CCOP(=O)(OCC)O/N=C(/C#N)c1ccccc1
inactive: dose: 75.0 mg/kg/injection, schedule: Q01DX001 (ip), vehicle: saline 91 % of control

C=CCC(O)c1ccccc1 (centres undefined)
inactive: [2] 103 % of control | [4] 100 % of control | [6] 113 % of control

CCc1ccc(Nc2c([N+](=O)[O-])cc(C)cc2[N+](=O)[O-])cc1
inactive: [1] 97 % of control | dose: 100.0 mg/kg/injection, schedule: Q04DX003 (ip), vehicle: Klucel (hydroxypropylcellulose) (HPC) 103 % of control | [3] 105 % of control | dose: 200.0 mg/kg/injection, schedule: Q04DX003 (ip), vehicle: Klucel (hydroxypropylcellulose) (HPC) 108 % of control | [5] 113 % of control | dose: 400.0 mg/kg/injection, schedule: Q04DX003 (ip), vehicle: Klucel (hydroxypropylcellulose) (HPC) 102 % of control

Cc1ccc(Cl)cc1NS(=O)(=O)c1ccccc1[N+](=O)[O-]
inactive: [1] 93 % of control | [3] 93 % of control | [5] 96 % of control

COc1ccc(C2CCc3cc(OC)c(OC)cc3C2NC=O)cc1OC (centres undefined)
inactive: dose: 40.0 mg/kg/injection, schedule: Q01DX009 (ip), vehicle: saline with Tween-80 90 % of control | dose: 80.0 mg/kg/injection, schedule: Q01DX009 (ip), vehicle: saline with Tween-80 102 % of control | dose: 120.0 mg/kg/injection, schedule: Q01DX009 (ip), vehicle: saline with Tween-80 93 % of control | dose: 240.0 mg/kg/injection, schedule: Q01DX009 (ip), vehicle: saline with Tween-80 90 % of control | dose: 360.0 mg/kg/injection, schedule: Q01DX009 (ip), vehicle: saline with Tween-80 87 % of control

O=C(O)CC(Br)C(=O)c1ccccc1 (centres undefined)
inactive: dose: 12.5 mg/kg/injection, schedule: Q01DX009 (ip), vehicle: saline with Tween-80 91 % of control | dose: 12.5 mg/kg/injection, schedule: Q04DX003 (ip), vehicle: saline with Tween-80 96 % of control | dose: 25.0 mg/kg/injection, schedule: Q01DX009 (ip), vehicle: saline with Tween-80 95 % of control | dose: 25.0 mg/kg/injection, schedule: Q04DX003 (ip), vehicle: saline with Tween-80 96 % of control | dose: 50.0 mg/kg/injection, schedule: Q01DX009 (ip), vehicle: saline with Tween-80 95 % of control | dose: 50.0 mg/kg/injection, schedule: Q04DX003 (ip), vehicle: saline with Tween-80 104 % of control

CCCCCCCCCCCCCCC
inactive: dose: 100.0 mg/kg/injection, schedule: Q01DX001 (ip), vehicle: saline with Tween-80 107 % of control | dose: 200.0 mg/kg/injection, schedule: Q01DX001 (ip), vehicle: saline with Tween-80 95 % of control | dose: 400.0 mg/kg/injection, schedule: Q01DX001 (ip), vehicle: saline with Tween-80 91 % of control

O=C1NCCC/C1=N/Nc1ccccc1
inactive: dose: 100.0 mg/kg/injection, schedule: Q04DX002 (ip), vehicle: Klucel (hydroxypropylcellulose) (HPC) 92 % of control | dose: 200.0 mg/kg/injection, schedule: Q04DX002 (ip), vehicle: Klucel (hydroxypropylcellulose) (HPC) 92 % of control | dose: 400.0 mg/kg/injection, schedule: Q04DX002 (ip), vehicle: Klucel (hydroxypropylcellulose) (HPC) 113 % of control

CCCCCCCCOc1ccc(C=Nc2ccc(CC)cc2)cc1
inactive: [1] 97 % of control | [3] 86 % of control | [5] 91 % of control
